In patent publication EP0908457B1, “3-(1,2-benzisothiazol- and isoxazol-5-Y1)-2,4(1H,3H)-pyrimidinedione or thione and 3-(1,2-benzisothiazol- and isoxazol-5-y1)-4(3H)-pyrimidinone or thione herbicidal agents” (BASF AKTIENGESELLSCHAFT, priority 1997, dated 1999):

What was measured:
[1] = system: Sagittaria pygmaea, L.; assay: Preemergence weed control under flooded paddy conditions, SAGPY (Arrowhead (Pygmaea)); assay type: in vivo; conditions: preemergence, flooded paddy, rated three to four weeks after treatment
[2] = system: Cyperus iria; assay: Preemergence weed control under flooded paddy conditions, CYPIR (Rice Flatsedge); assay type: in vivo; conditions: preemergence, flooded paddy, rated three to four weeks after treatment
[3] = system: Echinochloa oryzoides (Ard.) Fritsch.; assay: Preemergence weed control under flooded paddy conditions, ECHORC (Watergrass (Calif.)); assay type: in vivo; conditions: preemergence, flooded paddy, rated three to four weeks after treatment
[4] = system: Cyperus serotinus, Rottb.; assay: Preemergence weed control under flooded paddy conditions, CYPSE (Flatsedge); assay type: in vivo; conditions: preemergence, rated three to four weeks after treatment
[5] = system: Monochoria vaginalis, Presl.; assay: Preemergence weed control under flooded paddy conditions, MOOVA (Monochoria); assay type: in vivo; conditions: preemergence, flooded paddy, rated three to four weeks after treatment
[6] = system: Oryza sativa, (L.) Tebonnet; assay: Rice tolerance to post-transplant applications under flooded paddy conditions (Example 187), ORYSAT (Rice, Tebonnet); conditions: rated three to four weeks after treatment

SMILES	SAGPY herbicidal rating ([1]; 0.0320 kg/ha)	SAGPY herbicidal rating ([1]; 0.0620 kg/ha)	SAGPY herbicidal rating ([1]; 0.1250 kg/ha)	SAGPY herbicidal rating ([1]; 0.2500 kg/ha)	CYPIR herbicidal rating ([2]; 0.0320 kg/ha)	CYPIR herbicidal rating ([2]; 0.0620 kg/ha)	CYPIR herbicidal rating ([2]; 0.1250 kg/ha)	CYPIR herbicidal rating ([2]; 0.2500 kg/ha)	ECHORC herbicidal rating ([3]; 0.0320 kg/ha)	ECHORC herbicidal rating ([3]; 0.0620 kg/ha)	ECHORC herbicidal rating ([3]; 0.1250 kg/ha)	ECHORC herbicidal rating ([3]; 0.2500 kg/ha)	MOOVA herbicidal rating ([5]; 0.0320 kg/ha)	MOOVA herbicidal rating ([5]; 0.0620 kg/ha)	MOOVA herbicidal rating ([5]; 0.1250 kg/ha)	MOOVA herbicidal rating ([5]; 0.2500 kg/ha)	ORYSAT herbicidal rating (rice tolerance) ([6]; 0.0320 kg/ha)	ORYSAT herbicidal rating (rice tolerance) ([6]; 0.0620 kg/ha)	ORYSAT herbicidal rating (rice tolerance) ([6]; 0.1250 kg/ha)	ORYSAT herbicidal rating (rice tolerance) ([6]; 0.2500 kg/ha)	other results
Cn1c(C(F)(F)F)cc(=O)n(-c2ccc3snc(C(C)(C)C(=O)OCc4ccco4)c3c2)c1=O [Example 487, 1,2-Benzisothiazole-3-acetic acid, 5-[3,6-dihydro-3-methyl-2,6-dioxo-4-(trifluoromethyl)-1(2H)-pyrimidinyl]-alpha,alpha-dimethyl-, furfuryl ester]	4.0	5.0	6.0	7.0	4.0	5.0	6.0	9.0	6.0	7.0	7.0	9.0	7.0	9.0	9.0	9.0	2.0	3.0	6.0	7.0	CYPSE herbicidal rating ([4]; 0.2500 kg/ha): 3.0
Cn1c(C(F)(F)F)cc(=O)n(-c2ccc3snc(C(C)(C)C(=O)NS(C)(=O)=O)c3c2)c1=O [Example 488, 1,2-Benzisothiazole-3-acetamide, 5-[3,6-dihydro-3-methyl-2,6-dioxo-4-(trifluoromethyl)-1(2H)-pyrimidinyl]-alpha,alpha-dimethyl-N-(methylsulfonyl)-]	0.0	0.0	0.0	0.0	3.0	3.0	4.0	5.0	0.0	0.0	0.0	0.0	7.0	9.0	9.0	9.0	3.0	3.0	4.0	4.0	CYPSE herbicidal rating ([4]; 0.0620 kg/ha): 0.0; CYPSE herbicidal rating ([4]; 0.1250 kg/ha): 0.0
CC(C)OC(=O)C(C)(C)c1nsc2ccc(-n3c(=O)cc(C(F)(F)F)n(C)c3=O)cc12 [Example 489, 1,2-Benzisothiazole-3-acetic acid, 5-[3,6-dihydro-3-methyl-2,6-dioxo-4-(trifluoromethyl)-1(2H)-pyrimidinyl]-alpha,alpha-dimethyl-, isopropyl ester]	6.0	9.0	9.0	9.0	6.0	9.0	9.0	9.0	7.0	7.0	9.0	9.0	9.0	9.0	9.0	9.0	5.0	6.0	6.0	6.0	CYPSE herbicidal rating ([4]; 0.0320 kg/ha): 6.0; CYPSE herbicidal rating ([4]; 0.0620 kg/ha): 7.0; CYPSE herbicidal rating ([4]; 0.1250 kg/ha): 9.0; CYPSE herbicidal rating ([4]; 0.2500 kg/ha): 9.0
COC(=O)C(C)(C)c1nsc2ccc(-n3c(=O)cc(C(F)(F)F)n(C)c3=O)cc12 [Example 490, 1,2-Benzisothiazole-3-acetic acid, 5-[3,6-dihydro-3-methyl-2,6-dioxo-4-(trifluoromethyl)-1(2H)-pyrimidinyl]-alpha,alpha-dimethyl-, methyl ester]	6.0	9.0	9.0	9.0	9.0	9.0	9.0	9.0	8.0	9.0	9.0	9.0	9.0	9.0	9.0	9.0	7.5	9.0	8.5	9.0	CYPSE herbicidal rating ([4]; 0.0320 kg/ha): 9.0; CYPSE herbicidal rating ([4]; 0.0620 kg/ha): 9.0; CYPSE herbicidal rating ([4]; 0.1250 kg/ha): 9.0; CYPSE herbicidal rating ([4]; 0.2500 kg/ha): 9.0
C=CCOC(=O)C(C)(C)c1nsc2ccc(-n3c(=O)cc(C(F)(F)F)n(C)c3=O)cc12 [Example 491, 1,2-Benzisothiazole-3-acetic acid, 5-[3,6-dihydro-3-methyl-2,6-dioxo-4-(trifluoromethyl)-1(2H)-pyrimidinyl]-alpha,alpha-dimethyl-, allyl ester]	5.0	5.5	9.0	9.0	7.5	9.0	9.0	9.0	9.0	9.0	9.0	9.0	9.0	9.0	9.0	9.0	5.0	6.5	8.0	7.5	CYPSE herbicidal rating ([4]; 0.0320 kg/ha): 7.0; CYPSE herbicidal rating ([4]; 0.0620 kg/ha): 9.0; CYPSE herbicidal rating ([4]; 0.1250 kg/ha): 9.0; CYPSE herbicidal rating ([4]; 0.2500 kg/ha): 9.0
COC(=O)C(C)Oc1cc(Cl)c(C)cc1-c1nsc2ccc(-n3c(=O)cc(C(F)(F)F)n(C)c3=O)cc12 (stereo not drawn) [Example 492, Propionic acid, 2-{{5-chloro-2-{5-[3,6-dihydro-3-methyl-2,6-dioxo-4-(trifluoromethyl)-1(2H)-pyrimidinyl]-1,2-benzisothiazol-3-yl}-p-tolyl}oxy}-, methyl ester]	0.0	0.0	0.0	2.0	4.0	4.0	4.0	5.0	4.0	6.0	6.0	9.0	6.0	6.0	7.0	7.0	2.0	2.0	2.0	3.0	CYPSE herbicidal rating ([4]; 0.2500 kg/ha): 0.0
COC(=O)COc1cc(Cl)c(C)cc1-c1nsc2ccc(-n3c(=O)cc(C(F)(F)F)n(C)c3=O)cc12 [Example 493, Acetic acid, {{5-chloro-2-{5-[3,6-dihydro-3-methyl-2,6-dioxo-4-(trifluoromethyl)-1(2H)-pyrimidinyl]-1,2-benzisothiazol-3-yl}-p-tolyl}oxy}-, methyl ester]	0.0	0.0	0.0	3.0	4.0	6.0	7.0	9.0	4.0	5.0	9.0	9.0	5.0	7.0	7.0	9.0	2.0	2.0	3.0	3.0	CYPSE herbicidal rating ([4]; 0.1250 kg/ha): 9.0; CYPSE herbicidal rating ([4]; 0.2500 kg/ha): 9.0
CN(C(=O)c1nsc2ccc(-n3c(=O)cc(C(F)(F)F)n(C)c3=O)cc12)S(=O)(=O)Cc1ccccc1 [Example 494, 1,2-Benzisothiazole-3-carboxamide, N-(benzylsulfonyl)-5-[3,6-dihydro-3-methyl-2,6-dioxo-4-(trifluoromethyl)-1(2H)-pyrimidinyl]-N-methyl-]	0.0	0.0	0.0	3.0	3.0	4.0	5.0	5.0	0.0	2.0	3.0	3.0	4.0	4.0	5.0	6.0	0.0	0.0	0.0	0.0	CYPSE herbicidal rating ([4]; 0.1250 kg/ha): 0.0; CYPSE herbicidal rating ([4]; 0.2500 kg/ha): 3.0
